Results from article PMC5742070 (Xenobiotica; the fate of foreign compounds in biological …, 2020).

Tests used:
Caco-2 cells = conditions: ref Gertz et al., 2013; cited from earlier work
[1] = substrate related parameter; ref Kotegawa et al., 2002, Matsuda et al., 2012; cited from earlier work
CYP3A [2] = test: MDZ kinetics used for initial estimates; assay type: biochemical, rat
CYP3A [3] = conditions: substrate related parameter; ref Kirby et al., 2011; cited from earlier work

**Q.** With CC[C@H]1OC(=O)[C@H](C)[C@@H](O[C@H]2C[C@@](C)(OC)[C@@H](O)[C@H](C)O2)[C@H](C)[C@@H](O[C@@H]2O[C@H](C)C[C@H](N(C)C)[C@H]2O)[C@](C)(O)C[C@@H](C)C(=O)[C@H](C)[C@@H](O)[C@]1(C)O [ERY, erythromycin] as the compound, how does the Papp (Caco-2 cells) read?
**A.** 0.44 ×10⁻⁶ cm/s

**Q.** For Cc1ncc2n1-c1ccc(Cl)cc1C(c1ccccc1F)=NC2 [MDZ, midazolam], which “Fg (fraction escaping gut)” value [1] is on record?
**A.** 0.75

**Q.** What about the Papp (Caco-2 cells) of the same compound?
**A.** 32.4 ×10⁻⁶ cm/s

**Q.** What about the “kcat (k3)” value (CYP3A [2]; initial estimate from experimental samples without inhibitor) of the same compound?
**A.** approx. 10 min^−1

**Q.** What about the Km (CYP3A [2]; rat, liver microsomes) of the same compound?
**A.** 10 µM

**Q.** What about the “fm (fraction metabolized by CYP3A)” value (CYP3A [3]) of the same compound?
**A.** 0.93
